{Dendrimer} = dendrimer conjugate (vivo-morpholino)

Data set [1] relates to sVEGFR2 protein. Nature of the data set: Western blot for sVEGFR2 from mouse ocular solution after intravitreous injection. Format: in vivo. Particulars: 2 μl of 100 ng/μl intravitreously on day 0 and day 3, western blot on day 4. From the text:
To administer morpholinos in vivo, morpholino conjugated with a dendrimer at the 3′ position (vivo-morpholino) was used for animal experiments. It should be understood that this technique is merely exemplary, and any other method of administration is considered to be within the present scope. […] Next, the protein level of mbVEGFR2 and sVEGFR2 in the retina and the ocular solution was examined by western blot. Consistent with real-time PCR results, moVEGFR2_MOe13 decreased mbVEGFR2 protein in the retina (FIG. 7C) and increased sVEGFR2 protein in the ocular solution (FIG. 7D).
To examine whether moVEGFR2_MOe13 could work in the mouse eye, on day 0 and day 3 2 μl of 100 ng/μl moVEGFR2_MOe13 or STD_MO or DPBS were injected intravitreously. On day 4, retinal total RNA was extracted with RNeasy mini kit with DNaseI treatment. sVEGFR2 and mbVEGFR2 mRNA expression were determined by the method described above. For western blot of mbVEGFR2, on day 4, retina was dissolved in RIPA buffer. For western blot of sVEGFR2, on 4 day, intraocular solution was obtained from 6 eyes by pipette. After centrifuge, supernatant was used for further experiment. For western blot, biotin-conjugated anti-VEGFR2 (BAF644, R&D Systems, Minneapolis, Minn.) was used at 1 μg/μl.
In general terms: In western blotting, separated proteins are transferred to a membrane and probed.

The test system of data set [2] is suture-induced corneal neovascularization and lymphangiogenesis. Nature of the data set: Mouse corneal suture model (CD31 and LYVE-1 stained cornea flatmount). Particulars: for suppression of suture-induced neovascularization: CD31; for suppression of lymphangiogenesis: LYVE-1. Format: in vivo. On the procedure: In another aspect, a corneal suture model can be used to evaluate angiogenesis. For the one week subarm, each morpholino or DPBS was injected subconjunctivally one day prior to and four days after suturing; the corneas were harvested at seven days post suturing. For the two week subarm, each morpholino or DPBS was injected subconjunctivally one day prior and four, seven and ten days after suturing; the corneas were harvested at fourteen days. CD31 and LYVE-1 were used as markers of neovascularization and lymphangiogenesis, respectively. FIGS. 10 and 11 representative images of CD31 stained corneas at one week and LYVE-1 stained corneas at two weeks, respectively.
Under anesthesia, 15 μl of moVEGFR2_MOe13 (40 ng/μl), STD_MO (40 ng/μl) or DPBS was injected subconjunctivally into two different places one day prior to the placement of 2 symmetrical 11-0 nylon sutures, followed by re-injection at four days after suture placement. Eyes were harvested 7 days after suture placement. In a second group, 15 μl of moVEGFR2_MOe13 (40 ng/μl), STD_MO (40 ng/μl) or DPBS was injected subconjunctivally into two different places one day prior to the placement of 2 symmetrical 11-0 nylon sutures. Subconjunctival injections were repeated at four, seven and ten days after suture placement. Eyes were harvested 14 days after suture placement. The corneas were fixed in acetone at room temperature for 20 minutes. After 4 washes in PBST (0.1% Tween20/PBS), the corneas were incubated in 3% BSA/PBS at 4° C. for 3 days. To detect CD31 and LYVE1, corneas were incubated in 3% BSA/PBS with FITC-conjugated rat anti-CD31 antibody (553372, 1:500, BD Biosciences, San Jose, Calif.) or rabbit anti-LYVE-1 (ab14917, 1:200, Abcam, Cambridge, Mass.) overnight at 4° C. After 3 washes in PBST, the corneas were incubated in 3% BSA/PBS with Alexa Fluor® 546 conjugated goat anti-rabbit IgG (A11071, 1:2000, Invitrogen Corporation, Carlsbad, Calif.) for one hour at room temperature. After 4 washes in PBST, corneas were mounted on slide glass with Fluoro-gel (Electron Microscopy Sciences, Hatfield, Pa.). Fluorescence was observed by fluorescence microscope (Carl Zeiss MicroImaging, Inc., Thornwood, N.Y.). The data for each suture was calculated by ImageJ separately. Areas where sutures had fallen out were not included in the final calculations.

Regarding “5′-cacccagggatgcctccatacCTAG-3′ (antisense CACCCAGGGATGCCTCCATACCTAG; all phosphorodiamidate morpholino (PMO), 3' {Dendrimer}) [moVEGFR2_MOe13, morpholino that targets the exon13-intron13 junction of the mouse VEGFR2 gene; in vivo conjugated with a dendrimer (vivo-morpholino)]”, in data set [1], the “sVEGFR2 protein in the ocular solution” value was “increased”. Besides, the “suppression of suture-induced neovascularization” value worked out at 52.2% in data set [2] (1 week, 15 μl of 40 ng/μl subconjunctivally one day prior to and four days after suturing, compared to DPBS, p<0.001); 29.6% in data set [2] (2 weeks, 15 μl of 40 ng/μl subconjunctivally one day prior and four, seven and ten days after suturing, compared to DPBS, p<0.05). In addition, the suppression of lymphangiogenesis in data set [2] (2 weeks after suture placement, compared to DPBS, p<0.05) was 27.8%; in data set [2] (one week after suture placement), “did not suppress”.

The record behind these values is US20170218375A1, “MORPHOLINOS, MORPHOLINO UPREGULATING, AND ASSOCIATED METHODS” (University of Utah Research Foundation, priority 2011, published 2017).
